From patent US12673946B2, “Pyrimidin-4(3H)-one derivatives as TRPV4 antagonists” (RaQualia Pharma Inc., priority 2020, dated 2026)

Target: T1, human TRPV4 (Homo sapiens, UniProt Q9HBA0)
T1 construct: host or cells: tetracycline-inducible Flp-In T-REx 293 cells
Assay: Hypotonicity-induced Ca2+ influx (Fluo-4, FDSS)
Type: cell-based
Procedure, shortened: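 Flp-In T-REx 293 cells with tetracycline-induced human TRPV4, loaded with Fluo-4 for 60 min at 25 °C. Compound added 5 min before hypotonic mannitol/CaCl2 solution. Ca2+ signal recorded for 4.5 min on FDSS.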

[1] = Flp-In T-REx 293 cells expressing human TRPV4, examples listed under heading 'Human IC50<50 nM'
[2] = Flp-In T-REx 293 cells stably expressing human TRPV4, compounds listed by potency bin (<10 nM Tables 96-1/96-2, <3 nM Table 97)

T1 sequence (Q9HBA0 whole entry): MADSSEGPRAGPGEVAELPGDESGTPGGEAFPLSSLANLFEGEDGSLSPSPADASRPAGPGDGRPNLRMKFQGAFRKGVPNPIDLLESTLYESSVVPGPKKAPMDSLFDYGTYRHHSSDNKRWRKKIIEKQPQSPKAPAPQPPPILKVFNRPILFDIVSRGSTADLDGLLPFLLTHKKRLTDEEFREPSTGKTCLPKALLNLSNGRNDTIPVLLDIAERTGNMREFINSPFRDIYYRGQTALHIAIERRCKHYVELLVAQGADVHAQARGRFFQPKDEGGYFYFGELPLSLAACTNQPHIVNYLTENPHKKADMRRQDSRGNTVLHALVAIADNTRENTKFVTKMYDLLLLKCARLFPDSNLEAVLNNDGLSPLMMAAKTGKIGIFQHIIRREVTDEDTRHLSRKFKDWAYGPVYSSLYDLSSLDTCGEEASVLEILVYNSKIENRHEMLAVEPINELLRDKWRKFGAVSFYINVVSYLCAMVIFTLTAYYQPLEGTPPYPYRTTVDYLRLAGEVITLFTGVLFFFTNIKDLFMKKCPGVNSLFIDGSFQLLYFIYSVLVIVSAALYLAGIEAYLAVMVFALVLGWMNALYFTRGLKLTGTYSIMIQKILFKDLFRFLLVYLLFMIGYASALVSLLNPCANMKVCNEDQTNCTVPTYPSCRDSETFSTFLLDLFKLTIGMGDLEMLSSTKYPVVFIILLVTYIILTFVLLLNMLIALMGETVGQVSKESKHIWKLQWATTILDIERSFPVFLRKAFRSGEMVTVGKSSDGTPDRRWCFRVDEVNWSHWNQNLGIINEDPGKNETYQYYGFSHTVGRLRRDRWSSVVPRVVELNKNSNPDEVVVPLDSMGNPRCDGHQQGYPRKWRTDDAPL

Row | IC50 [1] [nM] | IC50 [2] [nM] | SMILES
1 | < 50 | < 10 | CC(C)N(C(=O)c1csc(C2(c3nc4c(c(=O)[nH]3)CN(C(=O)[C@H](O)c3cccc(C(F)(F)F)c3)CCC4)CC2)c1)C1CCCCC1 [59-15]
2 | < 50 | < 10 | CC(C)c1csc(C2(c3nc4c(c(=O)[nH]3)CN(C(=O)C(O)c3cccc(C(C)(C)C)c3)CC4)CC2)c1 (stereo not drawn) [15-24]
3 | < 50 | < 10 | CC(C(=O)N1CCCc2nc(C3(c4cccc(F)c4)CC3)[nH]c(=O)c2C1)c1cccc(C(F)(F)F)c1 (stereo not drawn) [17-89]
4 | < 50 | < 10 | CC(C)c1cncc(C2(c3nc4c(c(=O)[nH]3)CN(C(=O)[C@H](O)c3cccc(-c5ccc(F)cc5)c3)CC4)CC2)c1 [47-3]
5 | < 50 | < 3 | O=C([C@H](O)c1cccc(Cl)c1)N1CCc2nc(C3(c4cncc(C5CCCC5)c4)CC3)[nH]c(=O)c2C1 [25-1]
6 | < 50 |  | O=C(C(O)c1cccc(-c2ccc(OC(F)(F)F)cc2)c1)N1CCc2nc(C3(c4ccccc4)CC3)[nH]c(=O)c2C1 (stereo not drawn) [44-24]
7 | < 50 | < 10 | O=C([C@H](O)c1cccc(C(F)(F)F)c1)N1CCCc2nc(C3(c4cc(C5CCOCC5)cs4)CC3)[nH]c(=O)c2C1 [30-7]
8 | < 50 | < 10 | O=C([C@H](O)c1cccc(-c2cccc(OCc3ccccc3)c2)c1)N1CCCc2nc(C3(c4ccccc4)CC3)[nH]c(=O)c2C1 [49-26]
9 | < 50 | < 10 | O=C(C(O)c1cccc(S(F)(F)(F)(F)F)c1)N1CCCc2nc(C3(c4cccs4)CC3)[nH]c(=O)c2C1 (stereo not drawn) [18-8]
10 | < 50 |  | O=C([C@H](O)c1cccc(-c2ccc(OCc3ccccn3)cc2)c1)N1CCc2nc(C3(c4ccccc4)CC3)[nH]c(=O)c2C1 [44-87]
11 | < 50 | < 10 | O=C(Cc1cccc(C2CC2)c1)N1CCCc2nc(C3(c4cccc(Cl)c4)CC3)[nH]c(=O)c2C1 [17-116]
12 | < 50 | < 10 | Cn1ncc2cc(-c3cccc(C4(c5nc6c(c(=O)[nH]5)CN(C(=O)[C@H](O)c5cccc(C(F)(F)F)c5)CCC6)CC4)c3)ccc21 [42-20]
13 | < 50 |  | O=C(CCc1cccc(C(F)(F)F)c1)N1CCCc2nc(C3(c4cccc(Cl)c4)CC3)[nH]c(=O)c2C1 [17-121]
14 | < 50 | < 10 | O=C([C@H](O)c1cccc(-c2cccc(Cl)c2)c1)N1CCCc2nc(C3(c4cc(-c5ccccc5)cs4)CC3)[nH]c(=O)c2C1 [54-13]
15 | < 50 | < 10 | O=C(C(O)c1cccc(-c2cccc(OCc3ccccc3)c2)c1)N1CCc2nc(C3(c4ccccc4)CC3)[nH]c(=O)c2C1 (stereo not drawn) [44-119]
16 | < 50 |  | O=C(C(O)c1cccc(Cl)c1F)N1CCc2nc(C3(c4cccc(Cl)c4)CC3)[nH]c(=O)c2C1 (stereo not drawn) [14-28]
17 | < 50 | < 10 | CC(C)c1cccc(C2(c3nc4c(c(=O)[nH]3)CN(C(=O)[C@H](O)c3cccc(-c5cccc(Cl)c5)c3)CCC4)CC2)c1 [51-4]
18 | < 50 | < 10 | O=C(Cc1cccc(-c2cccc(Cl)c2)c1)N1CCCc2nc(C3(c4cc(-c5ccccc5)cs4)CC3)[nH]c(=O)c2C1 [18-27]
19 | < 50 | < 10 | O=C(Cc1cccc(-c2cccc(C(F)(F)F)c2)c1)N1CCCc2nc(C3(c4cccc(Cl)c4)CC3)[nH]c(=O)c2C1 [17-99]

Row | IC50 [1] [nM] | IC50 [2] [nM] | SMILES
20 | < 50 | < 10 | O=C([C@H](O)c1cccc(-c2cccc(C3CC3)c2)c1)N1CCCc2nc(C3(c4cccc(Cl)c4)CC3)[nH]c(=O)c2C1 [50-10]
21 | < 50 | < 10 | CC(C)c1cncc(C2(c3nc4c(c(=O)[nH]3)CN(C(=O)C(O)c3cccc(-c5cccc(C(C)(C)C)c5)c3)CCC4)CC2)c1 (stereo not drawn) [55-1]
22 | < 50 | < 10 | O=C([C@H](O)c1cccc(C(F)(F)F)c1)N1CCc2nc(C3(c4cccc(C5CCOCC5)c4)CC3)[nH]c(=O)c2C1 [27-3]
23 | < 50 | < 10 | CC(C)c1cccc(C2(c3nc4c(c(=O)[nH]3)CN(C(=O)C(F)(F)c3cccc(C(F)(F)F)c3)CCC4)CC2)c1 [20-6]
24 | < 50 | < 10 | O=C([C@H](O)c1cccc(Br)c1)N1CCCc2nc(C3(c4cccc(-c5csc6ccccc56)c4)CC3)[nH]c(=O)c2C1 [17-124]
25 | < 50 | < 10 | CC(C)(C)c1cccc(-c2cccc([C@@H](O)C(=O)N3CCCc4nc(C5(c6cncc(-c7ccccc7)c6)CC5)[nH]c(=O)c4C3)c2)c1 [56-4]
26 | < 50 | < 10 | O=C([C@H](O)c1cccc(Cl)c1)N1CCCc2nc(C3(c4cccc(Br)c4)CC3)[nH]c(=O)c2C1 [17-87]
27 | < 50 | < 10 | N#Cc1cncc(-c2cccc(C3(c4nc5c(c(=O)[nH]4)CN(C(=O)[C@H](O)c4cccc(C(F)(F)F)c4)CCC5)CC3)c2)c1 [42-19]
28 | < 50 | < 10 | O=C(C(O)c1cccc(SC(F)(F)F)c1)N1CCCc2nc(C3(c4cccc(Cl)c4)CC3)[nH]c(=O)c2C1 (stereo not drawn) [17-28]
29 | < 50 | < 10 | CN1CCc2cc(-c3cccc(C4(c5nc6c(c(=O)[nH]5)CN(C(=O)[C@H](O)c5cccc(C(F)(F)F)c5)CCC6)CC4)c3)ccc21 [42-50]
30 | < 50 | < 10 | O=C([C@H](O)c1cccc(-c2ccc(Cl)c(Cl)c2)c1)N1CCc2nc(C3(c4ccccc4)CC3)[nH]c(=O)c2C1 [44-101]
31 | < 50 |  | Cc1ccc(F)cc1-c1cccc(C(O)C(=O)N2CCc3nc(C4(c5ccccc5)CC4)[nH]c(=O)c3C2)c1 (stereo not drawn) [44-39]
32 | < 50 | < 10 | O=C(C(O)c1cccc(-c2cccc(C3CC3)c2)n1)N1CCc2nc(C3(c4ccccc4)CC3)[nH]c(=O)c2C1 (stereo not drawn) [48-6]
33 | < 50 | < 3 | O=C([C@H](O)c1cccc(-c2cc3ccccc3o2)c1)N1CCCc2nc(C3(c4ccccc4)CC3)[nH]c(=O)c2C1 [49-25]
34 | < 50 | < 10 | CC(C)c1csc(C2(c3nc4c(c(=O)[nH]3)CN(C(=O)C(O)c3cccc(C(C)(C)C)c3)CCC4)CC2)c1 (stereo not drawn) [18-15]
35 | < 50 |  | O=C(C(O)c1cccc(-c2cccc(F)c2F)c1)N1CCc2nc(C3(c4ccccc4)CC3)[nH]c(=O)c2C1 (stereo not drawn) [44-44]
36 | < 50 | < 10 | O=C([C@H](O)c1cccc(-c2cccc(C3CC3)c2)c1)N1CCCc2nc(C3(c4ccccc4)CC3)[nH]c(=O)c2C1 [49-47]
37 | < 50 | < 10 | O=C([C@H](O)c1cccc(-c2cccc(C(F)(F)F)c2)c1)N1CCCc2nc(C3(c4cccc(-c5csc6ccccc56)c4)CC3)[nH]c(=O)c2C1 [52-9]
38 | < 50 | < 10 | O=C([C@H](O)c1cccc(C(F)(F)F)c1)N1CCCc2nc(C3(c4ccccc4)CC3)[nH]c(=O)c2C1 [17-37]

Row | IC50 [1] [nM] | IC50 [2] [nM] | SMILES
39 | < 50 |  | O=C(C(O)c1cccc(C2CC2)c1)N1CCCc2nc(C3(c4cccs4)CC3)[nH]c(=O)c2C1 (stereo not drawn) [18-13]
40 | < 50 | < 3 | O=C([C@H](O)c1cccc(-c2cccc(C(F)(F)F)c2)c1)N1CCCc2nc(C3(c4ccccc4)CC3)[nH]c(=O)c2C1 [49-13]
41 | < 50 | < 10 | O=C(N1CCCc2nc(C3(c4cccc(-c5csc6ccccc56)c4)CC3)[nH]c(=O)c2C1)C(F)(F)c1cccc(C(F)(F)F)c1 [20-15]
42 | < 50 | < 10 | CC(C)c1csc(C2(c3nc4c(c(=O)[nH]3)CN(C(=O)[C@H](O)c3cccc(-c5cccc(OC(F)(F)F)c5)c3)CCC4)CC2)c1 [54-2]
43 | < 50 | < 10 | O=C(Cc1cccc(SC(F)(F)F)c1)N1CCCc2nc(C3(c4cccc(Cl)c4)CC3)[nH]c(=O)c2C1 [17-113]
44 | < 50 | < 10 | O=C([C@H](O)c1cccc(C(F)(F)F)c1)N1CCCc2nc(C3(c4cc(C(=O)N(C5CCCCC5)C5CCCCC5)cs4)CC3)[nH]c(=O)c2C1 [59-18]
45 | < 50 |  | O=C(Cc1ccccc1Oc1ccccc1)N1CCCc2nc(C3(c4ccccc4)CC3)[nH]c(=O)c2C1 [17-143]
46 | < 50 |  | N#Cc1cccc(-c2cccc(C(O)C(=O)N3CCc4nc(C5(c6ccccc6)CC5)[nH]c(=O)c4C3)c2)c1 (stereo not drawn) [44-32]
47 | < 50 | < 3 | N#Cc1cccc(-c2cccc(C3(c4nc5c(c(=O)[nH]4)CN(C(=O)[C@H](O)c4cccc(Cl)c4)CCC5)CC3)c2)c1 [40-21]
48 | < 50 | < 10 | CN(C)S(=O)(=O)c1ccc(-c2cccc(C3(c4nc5c(c(=O)[nH]4)CN(C(=O)[C@H](O)c4cccc(C(F)(F)F)c4)CCC5)CC3)c2)cc1 [42-18]
49 | < 50 |  | O=C([C@H](O)c1cccc(C(F)(F)F)c1)N1CCCc2nc(C3(c4cccc(-c5cncnc5)c4)CC3)[nH]c(=O)c2C1 [42-33]
50 | < 50 |  | O=C(COc1ccc(-c2ccccc2)cc1)N1CCCc2nc(C3(c4cccc(Cl)c4)CC3)[nH]c(=O)c2C1 [17-102]
51 | < 50 |  | O=C([C@H](O)c1cccc(C(F)(F)F)c1)N1CCc2nc(C3(c4cncc(C5CCOCC5)c4)CC3)[nH]c(=O)c2C1 [28-5]
52 | < 50 | < 10 | CC(C)c1csc(C2(c3nc4c(c(=O)[nH]3)CN(C(=O)[C@H](O)c3cccc(-c5cccc(C(F)(F)F)c5)c3)CCC4)CC2)c1 [54-4]
53 | < 50 | < 3 | O=C([C@H](O)c1cccc(C(F)(F)F)c1)N1CCCc2nc(C3(c4cncc(C5CCCCC5)c4)CC3)[nH]c(=O)c2C1 [19-1]
54 | < 50 |  | O=C(C(O)c1cccc(-c2cccc(C3CC3)c2)c1)N1CCc2nc(C3(c4ccccc4)CC3)[nH]c(=O)c2C1 (stereo not drawn) [44-20]
55 | < 50 | < 3 | Cn1ncc2cc(-c3cccc(C4(c5nc6c(c(=O)[nH]5)CN(C(=O)[C@H](O)c5cccc(Cl)c5)CCC6)CC4)c3)ccc21 [40-12]
56 | < 50 | < 3 | N#Cc1cc(Cl)cc(-c2cccc([C@@H](O)C(=O)N3CCc4nc(C5(c6cccc(Cl)c6)CC5)[nH]c(=O)c4C3)c2)c1 [45-5]
